The subject of data set [1] is blood vessels in the chick chorioallantoic membrane (CAM). Kind of data set: chick chorioallantoic membrane (CAM) assay, injection into the yolk sac. Conditions: for Number Nodes + Ends (mean ± S.E.): control 271 ± 25, P < 0.0001 vs control. Format: in vivo, chick embryo. The text has this:
Compounds suitable for use in the methods of the present invention can readily be identified using in vitro and in vivo screening assays. Such assays may screen for the ability of a particular compound to inhibit angiogenesis or the vascularization of endothelial cells in vitro and in vivo. For instance, the chick embryo chorioallantoic membrane (CAM) assay, which is described in more detail below, can be used to screen a given compound for its ability to inhibit vascularization. In the chorioallantoic membrane assay as performed in this invention, fertilized chick embryos are injected with a compound on day 3 or 4. The embryos are then allowed to develop for […] post injection upon which the shell is cracked and the chorioallantoic membrane is photographed. Based on the number of blood vessel nodes and ends present in the CAM the complexity of vascularization can be assessed. This assay can be used to assess the anti-angeogenic properties of the compounds in this invention. It will be readily apparent to those skilled in the art that the compounds in this invention can be administered alone, in the form of a pharmaceutically acceptable salt and/or in the form of a pharmaceutical composition. This example illustrates the anti-angiogenic properties of Oleuropein in the chick chorioallantoic membrane assay (CAM). The endpoint of the CAM assay was a quantitative determination of the number of branch points and ends of blood vessels in the chorioallantoic membrane. Such a quantitation would illustrate the complexity of the blood vasculature in the developing chorioallantoic membrane. The decrease in the complexity of the blood vasculature of the chorioallantoic membrane as a result of the application of Oleuropein indicates its anti-angiogenic properties. The CAM in the developing chick embryo is an excellent in vivo system for studying angiogenesis, because there is ongoing new blood vessel growth. The CAM assay involves the monotering of the blood vasculature of the developing chorioallantoic membrane of live chick embryos. Various CAM assay approaches have been developed. These include the culturing of live chick embryos in Petri dishes under special sterile conditions. Another approach has been to cut a window in the shell of fertilized eggs and directly apply the compound to be studied in the window using a filter paper. We used a modified approach to the CAM assay, which includes a less invasive method for introducing the compound Oleuropein. Fertilized chicken eggs where candled on the third day of development. The blood vasculature and the yolk were identified. A small 1 mm hole was made in the shell. A small gauge needle carrying 0.4 ml of Oleuropein diluted in saline/water was injected directly into the yolk sac. The hole was taped and the eggs were returned to the incubator for further development. After 3 days the eggs were removed and cracked in a white dish and the chorioallantoic membrane was photographed. Control eggs were injected with saline/water. Fresh fertile eggs were incubated for three days in a standard egg incubator. Temperature and humidity were kept constant at 100° F. and 65% respectively. On Day 3, eggs were […] using a police flash light. Embryo and yolk were identified. The surface of the shell was cleaned with an alcohol swab. The egg shell was pierced with a lancet making a 1 millimeter hole. A needle was used to withdraw 0.5 ml of yolk. A 0.5 ml injection was administered directly into the yolk sack. […] Experimental eggs were injected with a 0.1% and 1.0% concentration of Oleuropein. Control eggs were injected with an equivalent amount of water. After injection the hole was covered with a small piece of scotch tape and the eggs were returned to the incubator for further development. On day 3 post injection the eggs were removed from the incubator and […]. They were cracked gently using a butter knife over a white dish. Embryo and CAM were carefully layed out for observation and photography. […]

The subject of data set [2] is induced blood vasculature of the adult mouse ear. Kind of data set: adult mouse ear model, blood vessel growth induced by sodium hydroxide burn. Conditions: 0.025 grams in 0.25 ml PBS intraperitoneally once a day, 3 days before and 3 days after NaOH burn, FIG. 7. It is filed as in vivo. The text has this:
This example illustrates the anti-angiogenic properties of Oleuropein in the adult mouse ear model. The endpoint of the adult mouse ear model assay was a direct visualization of the number of branch points and ends of blood vessels. Such visualization would illustrate the complexity of the blood vasculature in the adult mouse ear. The decrease in the complexity of the induced blood vasculature of the adult mouse ear as a result of the application of Oleuropein would indicate its anti-angiogenic properties.
In the previous model (the CAM in the developing chick embryo), although an excellent in vivo system for studying angiogenesis, because there is ongoing new blood vessel growth in the growing embryo, we tested another model in assessing whether Oleuropein can inhibit induced blood vessel growth in an adult mammal. The model we chose to use was the adult mouse ear. The mouse ear is vascularized and is thin enough to be directly visualized by a light microscope. If a stimulus is applied to the adult mouse ear existing blood vessels are capable of sprouting new ones (angiogenesis). Using this model anti-angiogenic compounds can be tested for their effects. We applied a sodium hydroxide burn, which stimulated the existing blood vessels in the adult mouse ear to sprout new blood vessels. […]

The mark [3] stands for this setting: Oleuropein treated eggs, FIG. 5.

Marks after values point to notes of the source that are not given here.

Turning to `C/C=C1/[C@H](O[C@@H]2O[C@H](CO)[C@@H](O)[C@H](O)[C@H]2O)OC=C(C(=O)OC)[C@H]1CC(=O)OCCc1ccc(O)c(O)c1` [Oleuropein], the “effect on CAM vasculature (photographs)” value in data set [1] (0.93 μmol/egg, FIG. 2 vs control FIG. 3) was “potently inhibited CAM vasculature”; in data set [1] (9.3 μmol/egg, FIG. 1 vs control FIG. 3), “number of blood vessels is greatly diminished and branching is less complex than in controls”. Besides, the “% Inhibition of blood vessel growth compared to control” value in data set [1] (0.93 μmole/egg) worked out at 73%; in data set [1] (9.3 μmole/egg), 84%. Also, the “Number Nodes + Ends (mean ± S.E.)” value was 72 ± 11^b in data set [1] (0.93 μmole/egg into yolk sac of three-day-old chick embryos) and 44 ± 5.3^a in data set [1] (9.3 μmole/egg into yolk sac of three-day-old chick embryos). In addition, in data set [1] (setting [3]), the “CAM diameter, smaller than control CAM” value is “about 50%”. The “embryo size, smaller than untreated control embryos” value in data set [1] (setting [3]) is given as “about 60%”. The embryo viability entry in data set [1] (higher dose of Oleuropein) is reported as “did not effect embryo viability”. The “inhibition of induced blood vessel growth in the ear (photographs)” value in data set [2] is “potently inhibited existing blood vessels from sprouting”.

For the origin of these results see patent US6632798B2, “Methods for inhibiting angiogenesis” (Antigen Biologicals Corporation, priority 2001, dated 2003).
